Measurements as given in ChEMBL document CHEMBL4706554 (Eur J Med Chem, 2020).
The source made the active and inactive calls. The calls are words filed in the database; no cut-off is given here.

Experiments:
SR = test: Cytotoxicity against human SR cells assessed as cell growth inhibition at 10 uM incubated for 48 hrs by SRB assay; format: functional, cell-based
MDA-MB-435 = test: Cytotoxicity against human MDA-MB-435 cells assessed as cell growth inhibition at 10 uM incubated for 48 hrs by SRB assay; format: functional, cell-based
A498 = test: Cytotoxicity against human A498 cells assessed as cell growth inhibition at 10 uM incubated for 48 hrs by SRB assay; format: functional, cell-based
U-251 = test: Cytotoxicity against human U251 cells assessed as cell growth inhibition at 10 uM incubated for 48 hrs by SRB assay; format: functional, cell-based
MOLT-4 = test: Cytotoxicity against human MOLT-4 cells assessed as cell growth inhibition at 10 uM incubated for 48 hrs by SRB assay; format: functional, cell-based
RPMI-8226 = test: Cytotoxicity against human RPMI-8226 cells assessed as cell growth inhibition at 10 uM incubated for 48 hrs by SRB assay; format: functional, cell-based
NCI-H23 = test: Cytotoxicity against human NCI-H23 cells assessed as cell growth inhibition at 10 uM incubated for 48 hrs by SRB assay; format: functional, cell-based
SW-620 = test: Cytotoxicity against human SW-620 cells assessed as cell growth inhibition at 10 uM incubated for 48 hrs by SRB assay; format: functional, cell-based
HCC 2998 = test: Cytotoxicity against human HCC 2998 cells assessed as cell growth inhibition at 10 uM incubated for 48 hrs by SRB assay; format: functional, cell-based
OVCAR-3 = test: Cytotoxicity against human OVCAR-3 cells assessed as cell growth inhibition at 10 uM incubated for 48 hrs by SRB assay; format: functional, cell-based
CAKI-1 = test: Cytotoxicity against human CAK1 cells assessed as cell growth inhibition at 10 uM incubated for 48 hrs by SRB assay; format: functional, cell-based
NCI-H226 = test: Cytotoxicity against human NCI-H226 cells assessed as cell growth inhibition at 10 uM incubated for 48 hrs by SRB assay; format: functional, cell-based
HCT-15 = test: Cytotoxicity against human HCT-15 cells assessed as cell growth inhibition at 10 uM incubated for 48 hrs by SRB assay; format: functional, cell-based
BT-549 = test: Cytotoxicity against human BT-549 cells assessed as cell growth inhibition at 10 uM incubated for 48 hrs by SRB assay; format: functional, cell-based
OVCAR-5 = test: Cytotoxicity against human OVCAR-5 cells assessed as cell growth inhibition at 10 uM incubated for 48 hrs by SRB assay; format: functional, cell-based
NCI-H522 = test: Cytotoxicity against human NCI-H522 cells assessed as cell growth inhibition at 10 uM incubated for 48 hrs by SRB assay; format: functional, cell-based
SN12C = test: Cytotoxicity against human SN12C cells assessed as cell growth inhibition at 10 uM incubated for 48 hrs by SRB assay; format: functional, cell-based
IGROV-1 = test: Cytotoxicity against human IGROV-1 cells assessed as cell growth inhibition at 10 uM incubated for 48 hrs by SRB assay; format: functional, cell-based
PC-3 = test: Cytotoxicity against human PC-3 cells assessed as cell growth inhibition at 10 uM incubated for 48 hrs by SRB assay; format: functional, cell-based
UO-31 = test: Cytotoxicity against human UO-31 cells assessed as cell growth inhibition at 10 uM incubated for 48 hrs by SRB assay; format: functional, cell-based
DU-145 = test: Cytotoxicity against human DU-145 cells assessed as cell growth inhibition at 10 uM incubated for 48 hrs by SRB assay; format: functional, cell-based
786-0 = test: Cytotoxicity against human 786-0 cells assessed as cell growth inhibition at 10 uM incubated for 48 hrs by SRB assay; format: functional, cell-based
HOP-62 = test: Cytotoxicity against human HOP-62 cells assessed as cell growth inhibition at 10 uM incubated for 48 hrs by SRB assay; format: functional, cell-based
SF-295 = test: Cytotoxicity against human SF-295 cells assessed as cell growth inhibition at 10 uM incubated for 48 hrs by SRB assay; format: functional, cell-based
NCI/ADR-RES = test: Cytotoxicity against human NCI/ADR-RES cells assessed as cell growth inhibition at 10 uM incubated for 48 hrs by SRB assay; format: functional, cell-based
SK-OV-3 = test: Cytotoxicity against human SK-OV-3 cells assessed as cell growth inhibition at 10 uM incubated for 48 hrs by SRB assay; format: functional, cell-based
T47D = test: Cytotoxicity against human T47D cells assessed as cell growth inhibition at 10 uM incubated for 48 hrs by SRB assay; format: functional, cell-based
UACC-62 = test: Cytotoxicity against human UACC-62 cells assessed as cell growth inhibition at 10 uM incubated for 48 hrs by SRB assay; format: functional, cell-based
SF-268 = test: Cytotoxicity against human SF-268 cells assessed as cell growth inhibition at 10 uM incubated for 48 hrs by SRB assay; format: functional, cell-based
HCT-116 = test: Cytotoxicity against human HCT-116 cells assessed as cell growth inhibition at 10 uM incubated for 48 hrs by SRB assay; format: functional, cell-based
EKVX = test: Cytotoxicity against human EKVX cells assessed as cell growth inhibition at 10 uM incubated for 48 hrs by SRB assay; format: functional, cell-based
Malme-3M = test: Cytotoxicity against human Malme-3M cells assessed as cell growth inhibition at 10 uM incubated for 48 hrs by SRB assay; format: functional, cell-based
SF-539 = test: Cytotoxicity against human SF-539 cells assessed as cell growth inhibition at 10 uM incubated for 48 hrs by SRB assay; format: functional, cell-based
HT-29 = test: Cytotoxicity against human HT-29 cells assessed as cell growth inhibition at 10 uM incubated for 48 hrs by SRB assay; format: functional, cell-based
RXF 393 = test: Cytotoxicity against human RXF 393 cells assessed as cell growth inhibition at 10 uM incubated for 48 hrs by SRB assay; format: functional, cell-based
NCI-H460 = test: Cytotoxicity against human NCI-H460 cells assessed as cell growth inhibition at 10 uM incubated for 48 hrs by SRB assay; format: functional, cell-based
OVCAR-8 = test: Cytotoxicity against human OVCAR-8 cells assessed as cell growth inhibition at 10 uM incubated for 48 hrs by SRB assay; format: functional, cell-based
SK-MEL-28 = test: Cytotoxicity against human SK-MEL-28 cells assessed as cell growth inhibition at 10 uM incubated for 48 hrs by SRB assay; format: functional, cell-based
HOP-92 = test: Cytotoxicity against human HOP-92 cells assessed as cell growth inhibition at 10 uM incubated for 48 hrs by SRB assay; format: functional, cell-based
SK-MEL-2 = test: Cytotoxicity against human SK-MEL-2 cells assessed as cell growth inhibition at 10 uM incubated for 48 hrs by SRB assay; format: functional, cell-based
HL-60(TB) = test: Cytotoxicity against human HL-60(TB) cells assessed as cell growth inhibition at 10 uM incubated for 48 hrs by SRB assay; format: functional, cell-based
[1] = target: Dual specificity tyrosine-phosphorylation-regulated kinase 1A (Homo sapiens) (UniProt Q13627); test: Inhibition of wild-type human partial length DYRK1A (H129 to S509 residues) expressed in mammalian expression system at 1 uM by Kinomescan method
MDA-MB-231 = test: Cytotoxicity against human MDA-MB-231 cells assessed as cell growth inhibition at 10 uM incubated for 48 hrs by SRB assay; format: functional, cell-based
[2] = target: Homeodomain-interacting protein kinase 1 (Homo sapiens) (UniProt Q86Z02); test: Inhibition of wild-type human partial length HIPK1 (M146 to I555 residues) expressed in mammalian expression system at 1 uM by Kinomescan method
Sequence of Homeodomain-interacting protein kinase 1 (Homo sapiens) (Q86Z02 whole entry, looked up, the tested form may be a part): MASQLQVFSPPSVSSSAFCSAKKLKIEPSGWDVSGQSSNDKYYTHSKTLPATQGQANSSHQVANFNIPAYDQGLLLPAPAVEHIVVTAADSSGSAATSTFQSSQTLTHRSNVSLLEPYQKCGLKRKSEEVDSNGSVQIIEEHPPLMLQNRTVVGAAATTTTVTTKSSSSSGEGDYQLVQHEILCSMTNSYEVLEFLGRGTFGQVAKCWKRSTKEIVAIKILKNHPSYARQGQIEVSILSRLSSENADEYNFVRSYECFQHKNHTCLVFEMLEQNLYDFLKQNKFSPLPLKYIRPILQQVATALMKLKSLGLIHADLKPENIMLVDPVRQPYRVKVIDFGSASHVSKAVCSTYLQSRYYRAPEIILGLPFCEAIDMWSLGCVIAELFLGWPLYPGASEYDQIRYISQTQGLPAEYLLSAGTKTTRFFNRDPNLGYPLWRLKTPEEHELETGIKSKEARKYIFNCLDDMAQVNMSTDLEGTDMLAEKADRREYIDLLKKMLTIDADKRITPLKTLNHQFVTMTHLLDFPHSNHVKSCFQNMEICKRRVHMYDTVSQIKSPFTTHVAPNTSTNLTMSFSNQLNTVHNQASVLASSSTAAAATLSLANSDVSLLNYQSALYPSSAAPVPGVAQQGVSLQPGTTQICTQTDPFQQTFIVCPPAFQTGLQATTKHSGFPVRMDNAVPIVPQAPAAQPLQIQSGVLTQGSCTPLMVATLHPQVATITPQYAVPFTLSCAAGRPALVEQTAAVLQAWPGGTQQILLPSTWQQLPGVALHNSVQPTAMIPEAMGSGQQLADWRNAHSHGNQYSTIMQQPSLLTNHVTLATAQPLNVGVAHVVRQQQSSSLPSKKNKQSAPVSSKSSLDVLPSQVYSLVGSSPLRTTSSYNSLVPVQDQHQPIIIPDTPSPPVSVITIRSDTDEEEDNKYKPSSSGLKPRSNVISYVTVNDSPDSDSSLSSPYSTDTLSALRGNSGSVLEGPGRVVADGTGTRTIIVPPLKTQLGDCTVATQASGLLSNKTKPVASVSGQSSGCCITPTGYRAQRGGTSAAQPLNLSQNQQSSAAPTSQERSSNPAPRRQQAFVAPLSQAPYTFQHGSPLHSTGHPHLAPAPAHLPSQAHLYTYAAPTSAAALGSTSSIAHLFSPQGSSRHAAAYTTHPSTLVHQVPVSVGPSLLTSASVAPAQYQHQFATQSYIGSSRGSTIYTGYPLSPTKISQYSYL

ACHN = test: Cytotoxicity against human ACHN cells assessed as cell growth inhibition at 10 uM incubated for 48 hrs by SRB assay; format: functional, cell-based
SNB-75 = test: Cytotoxicity against human SNB-75 cells assessed as cell growth inhibition at 10 uM incubated for 48 hrs by SRB assay; format: functional, cell-based
OVCAR-4 = test: Cytotoxicity against human OVCAR-4 cells assessed as cell growth inhibition at 10 uM incubated for 48 hrs by SRB assay; format: functional, cell-based
A549 = test: Cytotoxicity against human A549 cells assessed as cell growth inhibition at 10 uM incubated for 48 hrs by SRB assay; format: functional, cell-based
TK-10 = test: Cytotoxicity against human TK-10 cells assessed as cell growth inhibition at 10 uM incubated for 48 hrs by SRB assay; format: functional, cell-based
MCF7 = test: Cytotoxicity against human MCF7 cells assessed as cell growth inhibition at 10 uM incubated for 48 hrs by SRB assay; format: functional, cell-based
SNB-19 = test: Cytotoxicity against human SNB-19 cells assessed as cell growth inhibition at 10 uM incubated for 48 hrs by SRB assay; format: functional, cell-based
K562 = test: Cytotoxicity against human K562 cells assessed as cell growth inhibition at 10 uM incubated for 48 hrs by SRB assay; format: functional, cell-based
COLO 205 = test: Cytotoxicity against human COLO 205 cells assessed as cell growth inhibition at 10 uM incubated for 48 hrs by SRB assay; format: functional, cell-based
SK-MEL-5 = test: Cytotoxicity against human SK-MEL-5 cells assessed as cell growth inhibition at 10 uM incubated for 48 hrs by SRB assay; format: functional, cell-based
M14 = test: Cytotoxicity against human M14 cells assessed as cell growth inhibition at 10 uM incubated for 48 hrs by SRB assay; format: functional, cell-based
NCI-H322M = test: Cytotoxicity against human NCI-H322M cells assessed as cell growth inhibition at 10 uM incubated for 48 hrs by SRB assay; format: functional, cell-based
MDA-MB-468 = test: Cytotoxicity against human MDA-MB-468 cells assessed as cell growth inhibition at 10 uM incubated for 48 hrs by SRB assay; format: functional, cell-based
LOX IMVI = test: Cytotoxicity against human LOX IMVI cells assessed as cell growth inhibition at 10 uM incubated for 48 hrs by SRB assay; format: functional, cell-based
KM12 = test: Cytotoxicity against human KM12 cells assessed as cell growth inhibition at 10 uM incubated for 48 hrs by SRB assay; format: functional, cell-based
UACC-257 = test: Cytotoxicity against human UACC-257 cells assessed as cell growth inhibition at 10 uM incubated for 48 hrs by SRB assay; format: functional, cell-based
Hs-578T = test: Cytotoxicity against human Hs-578T cells assessed as cell growth inhibition at 10 uM incubated for 48 hrs by SRB assay; format: functional, cell-based
CCRF-CEM = test: Cytotoxicity against human CCRF-CEM cells assessed as cell growth inhibition at 10 uM incubated for 48 hrs by SRB assay; format: functional, cell-based
[3] = target: T1, Casein kinase II subunit alpha (Homo sapiens, UniProt P68400); test: Displacement of fluorescent tracer from full-length human C-terminal NanoLuc-tagged CK2alpha expressed in HEK293T permeabilized cells measured after 2 hrs by NanoBRET assay; format: cell-based
T1 sequence (P68400 whole entry): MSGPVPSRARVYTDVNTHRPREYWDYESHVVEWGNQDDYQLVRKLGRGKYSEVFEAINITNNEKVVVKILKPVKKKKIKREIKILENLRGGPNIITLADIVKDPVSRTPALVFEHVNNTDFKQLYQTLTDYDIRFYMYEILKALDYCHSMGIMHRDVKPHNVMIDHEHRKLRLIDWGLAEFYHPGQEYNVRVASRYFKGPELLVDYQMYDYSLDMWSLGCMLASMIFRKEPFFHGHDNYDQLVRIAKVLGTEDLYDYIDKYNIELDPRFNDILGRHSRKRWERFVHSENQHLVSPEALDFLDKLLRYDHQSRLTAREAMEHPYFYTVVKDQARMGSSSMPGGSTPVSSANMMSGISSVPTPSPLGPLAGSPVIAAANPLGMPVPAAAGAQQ

[4] = target: T2, Casein kinase II subunit alpha' (Homo sapiens, UniProt P19784); test: Displacement of fluorescent tracer from full-length human C-terminal NanoLuc-tagged CK2alpha' expressed in HEK293T permeabilized cells measured after 2 hrs by NanoBRET assay; format: cell-based
T2 sequence (P19784 whole entry): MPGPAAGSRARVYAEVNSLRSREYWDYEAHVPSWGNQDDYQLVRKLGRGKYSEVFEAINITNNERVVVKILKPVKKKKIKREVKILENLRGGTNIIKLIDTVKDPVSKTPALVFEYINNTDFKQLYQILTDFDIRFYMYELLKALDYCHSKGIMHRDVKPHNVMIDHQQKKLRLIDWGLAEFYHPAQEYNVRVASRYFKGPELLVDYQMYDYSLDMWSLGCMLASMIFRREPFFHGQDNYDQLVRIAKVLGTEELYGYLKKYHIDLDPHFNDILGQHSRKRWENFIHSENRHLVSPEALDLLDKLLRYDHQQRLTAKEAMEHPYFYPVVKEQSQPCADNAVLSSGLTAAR

[5] = target: T1, Casein kinase II subunit alpha; test: Displacement of fluorescent tracer from full-length human C-terminal NanoLuc-tagged CK2alpha expressed in HEK293T cells measured after 2 hrs by NanoBRET assay; format: cell-based
[6] = target: T2, Casein kinase II subunit alpha'; test: Displacement of fluorescent tracer from full-length human C-terminal NanoLuc-tagged CK2alpha' expressed in HEK293T cells measured after 2 hrs by NanoBRET assay; format: cell-based

CC(C)(C)OC(=O)N(CCOCCO)c1ccn2ncc(-c3ccc(C(=O)O)c(O)c3)c2n1
Activity (SR): inactive
Activity (MDA-MB-435): inactive
Activity (A498): inactive
Activity (U-251): inactive
Activity (MOLT-4): inactive
Activity (RPMI-8226): inactive
Activity (NCI-H23): inactive
Activity (SW-620): inactive
Activity (HCC 2998): inactive
Activity (OVCAR-3): inactive
Activity (CAKI-1): inactive
Activity (NCI-H226): inactive
Activity (HCT-15): inactive
Activity (BT-549): inactive
Activity (OVCAR-5): inactive
Activity (NCI-H522): inactive
Activity (SN12C): inactive
Activity (IGROV-1): inactive
Activity (PC-3): inactive
Activity (UO-31): inactive
Activity (DU-145): inactive
Activity (786-0): inactive
Activity (HOP-62): inactive
Activity (SF-295): inactive
Activity (NCI/ADR-RES): inactive
Activity (SK-OV-3): inactive
Activity (T47D): inactive
Activity (UACC-62): inactive
Activity (SF-268): inactive
Activity (HCT-116): inactive
Activity (EKVX): inactive
Activity (Malme-3M): inactive
Activity (SF-539): inactive
Activity (HT-29): inactive
Activity (RXF 393): inactive
Activity (NCI-H460): inactive
Activity (OVCAR-8): inactive
Activity (SK-MEL-28): inactive
Activity (HOP-92): inactive
Activity (SK-MEL-2): inactive
Activity (HL-60(TB)): inactive
inhibition [1]: inactive
Activity (MDA-MB-231): inactive
inhibition [2]: inactive
Activity (ACHN): inactive
Activity (SNB-75): inactive
Activity (OVCAR-4): inactive
Activity (A549): inactive
Activity (TK-10): inactive
Activity (MCF7): inactive
Activity (SNB-19): inactive
Activity (K562): inactive
Activity (COLO 205): inactive
Activity (SK-MEL-5): inactive
Activity (M14): inactive
Activity (NCI-H322M): inactive
Activity (MDA-MB-468): inactive
Activity (LOX IMVI): inactive
Activity (KM12): inactive
Activity (UACC-257): inactive
Activity (Hs-578T): inactive
Activity (CCRF-CEM): inactive

O=C(O)c1ccc2cc1OCCOCCNc1ccn3ncc-2c3n1
IC50 [3]: 0.075 µM
IC50 [4]: 0.303 µM

CC(C)(C)OC(=O)N1CCOCCOc2cc(ccc2C(=O)O)-c2cnn3ccc1nc23
IC50 [4]: 0.771 µM

COC(=O)c1ccc(-c2cnn3ccc(N(CCOCCO)C(=O)OC(C)(C)C)nc23)cc1O
IC50 [5]: > 50 µM
IC50 [3]: 7.52 µM
IC50 [6]: > 50 µM
IC50 [4]: > 50 µM

COC(=O)c1ccc2cc1OCCOCCNc1ccn3ncc-2c3n1
IC50 [5]: > 50 µM
IC50 [3]: 13.2 µM
IC50 [6]: > 50 µM
IC50 [4]: > 50 µM
